Data on two compounds can be found in US5602106A, “16-membered macrolide derivatives” (priority 1993, dated 1997).

Values after ≈ are worked out from the molar mass of the structure shown. “Also recorded” adds a separate entry of the source.

Experiment [1] has as its system certain bacteria, for example, a species of acid-fast bacteria. Conditions: Chemistry Letters, 769 (1977); cited from earlier work.
For another experiment, the system named is Enterococcus feacalis. Nature of the experiment: Antimicrobial activity in vitro. The experiment is classed as cell-based. Particulars: vs clarithromycin. On the procedure:
(§1) The effect of the first aspect of the present invention resides in the creation of a novel and useful 16-membered macrolide derivative. Antimicrobial activities of the compounds of the present invention were determined by measuring minimum inhibitory concentration (MIC). Minimum inhibitory concentration was determined by the agar plate dilution method in the following manner.
(§2) Test strains were subjected to seed culture using Sensitivity test broth (STB, Nissui Pharmaceutical) except that the strains belonging to the genus Streptococcus, Branhamella and Haemophilus were cultured on blood agar plate. A 5 μl portion of cell suspension of the test strains having about 10^6 CFU/ml was inoculated into Sensitivity disk agar (SDA, Nissui Pharmaceutical) supplemented with 5% horse blood and incubated at 37° C. for 20 hours. Then, MIC was measured. […] Antimicrobial activities in vitro of the compounds (1) and (2) are shown in Table 1, and those of the compounds (3) and (4) in Table 3.

A further experiment relates to Haemophilus influenzae. Nature of the experiment: Antimicrobial activity in vitro. The experiment is classed as cell-based. Particulars: vs clarithromycin. On the procedure: as §1, §2
The test system of the next experiment is Streptococcus pneumoniae. Nature of the experiment: Antimicrobial activity in vitro. The experiment is classed as cell-based. Particulars: compared with MDM and LM-A7. On the procedure:
as §1, §2

The subject of experiment [2] is drug-resistant strain of Staphylococcus. Briefly: Antimicrobial activity in vitro. The experiment is classed as cell-based. Particulars: vs clarithromycin. On the procedure:
as §1, §2

A further experiment concerns Branhamella catarrhalis. Briefly: Antimicrobial activity in vitro. Particulars: vs clarithromycin. The experiment is classed as cell-based. On the procedure:
as §1, §2

Experiment [3] has as its system clinically important Gram-positive bacteria. Nature of the experiment: Antimicrobial activity / growth inhibition. The experiment is classed as cell-based. As to the method: as §1, §2
The test system of another experiment is S. aureus MS15026. Nature of the experiment: MIC, agar plate dilution method. Particulars: Staphylococcus aureus, 37° C., 20 hours, SDA with 5% horse blood, read-out: Antimicrobial activity (MIC). The experiment is classed as cell-based. The procedure, abridged: (§3)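 Minimum inhibitory concentration by agar plate dilution on disk agar with 5% horse blood; 5 μl of roughly 10^6 CFU/ml inoculated, 37° C. for 20 h.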

A further experiment has as its system H. influenzae Type b. Nature of the experiment: MIC, agar plate dilution method. The experiment is classed as cell-based. Particulars: Haemophilus influenzae, 20 h, read-out: Antimicrobial activity (MIC), 37° C., 20 hours, SDA with 5% horse blood. The procedure, abridged: as §3
For a further experiment, the system named is E. faecalis W-73. Nature of the experiment: MIC, agar plate dilution method. The experiment is classed as cell-based. Conditions: Enterococcus faecalis, W73, 20 h, read-out: Antimicrobial activity (MIC). The procedure, abridged:
as §3

The subject of the next experiment is K. pneumoniae PCI602. Nature of the experiment: MIC, agar plate dilution method. Conditions: Klebsiella pneumoniae, PCI602, 20 h, 37° C., SDA with 5% horse blood, read-out: Antimicrobial activity (MIC). The experiment is classed as cell-based. The procedure, abridged:
as §3

In the next experiment the test system is B. catarrhalis W-0500. Briefly: MIC, agar plate dilution method. Conditions: Moraxella catarrhalis, W0500, 20 h, read-out: Antimicrobial activity (MIC), 37° C., 20 hours, SDA with 5% horse blood. The experiment is classed as cell-based. The procedure, abridged: as §3
The test system of another experiment is S. pneumoniae Type 1. Briefly: MIC, agar plate dilution method. The experiment is classed as cell-based. Particulars: Streptococcus pneumoniae, TYPE1; 37° C., 20 hours, SDA with 5% horse blood; read-out: Antimicrobial activity (MIC). The procedure, abridged: as §3
The subject of another experiment is S. aureus 209P JC-1. Nature of the experiment: MIC, agar plate dilution method. The experiment is classed as cell-based. Particulars: Staphylococcus aureus, 209P, 20 h, 37° C., 20 hours, SDA with 5% horse blood; read-out: Antimicrobial activity (MIC). The procedure, abridged: as §3
The next experiment concerns S. aureus MS15027. Briefly: MIC, agar plate dilution method. The experiment is classed as cell-based. Particulars: Staphylococcus aureus, MS15027, 20 h, read-out: Antimicrobial activity (MIC), 37° C., 20 hours, SDA with 5% horse blood. The procedure, abridged: as §3
A further experiment deals with S. aureus M126. Briefly: MIC, agar plate dilution method. The experiment is classed as cell-based. Particulars: Staphylococcus aureus, 37° C., 20 hours, SDA with 5% horse blood, read-out: Antimicrobial activity (MIC). The procedure, abridged: as §3
Another experiment has as its system M. luteus ATCC9341. Briefly: MIC, agar plate dilution method. The experiment is classed as cell-based. Particulars: Micrococcus luteus, ATCC9341; 37° C., 20 hours, SDA with 5% horse blood; read-out: Antimicrobial activity (MIC). The procedure, abridged: as §3
For the next experiment, the system named is S. pneumoniae IP692. Nature of the experiment: MIC, agar plate dilution method. The experiment is classed as cell-based. Conditions: Streptococcus pneumoniae, IP692, 20 h, 37° C., 20 hours, SDA with 5% horse blood; read-out: Antimicrobial activity (MIC). The procedure, abridged: as §3
The next experiment relates to S. aureus MS15009/pMS98. Briefly: MIC, agar plate dilution method. The experiment is classed as cell-based. Particulars: Staphylococcus aureus, MS15009/PMS98, 20 h, read-out: Antimicrobial activity (MIC), 37° C., 20 hours, SDA with 5% horse blood. The procedure, abridged: (§4)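 Seed cultures are prepared in STB for Staphylococcus strains and on blood agar for H. influenzae and B. catarrhalis. A 5 μl inoculum (approx. 10^6 CFU/ml) goes onto blood-supplemented agar plates, which incubate 20 hours at 37° C. before MIC determination.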

The test system of a further experiment is S. aureus M133. Briefly: MIC, agar plate dilution method. The experiment is classed as cell-based. Particulars: Staphylococcus aureus, M133, 20 h, read-out: Antimicrobial activity (MIC), 37° C., 20 hours, SDA with 5% horse blood. The procedure, abridged:
as §3

A further experiment has as its system B. catarrhalis W-0506. Nature of the experiment: MIC, agar plate dilution method. The experiment is classed as cell-based. Particulars: Moraxella catarrhalis, W0506; 37° C., 20 hours, SDA with 5% horse blood; read-out: Antimicrobial activity (MIC). The procedure, abridged: as §3
The next experiment concerns S. aureus MS15009/pMS99. Nature of the experiment: MIC, agar plate dilution method. The experiment is classed as cell-based. Particulars: Staphylococcus aureus, MS15009/PMS99, 20 h, read-out: Antimicrobial activity (MIC). The procedure, abridged: as §4
A further experiment deals with S. epidermidis ATCC14990. Nature of the experiment: MIC, agar plate dilution method. The experiment is classed as cell-based. Conditions: Staphylococcus epidermidis, ATCC14990, 20 h, read-out: Antimicrobial activity (MIC), 37° C., 20 hours, SDA with 5% horse blood. The procedure, abridged:
as §3

For a further experiment, the system named is test strains. Briefly: Antimicrobial activity in vitro, test strains overall. The experiment is classed as cell-based. The procedure, abridged: as §3

Consider `CO[C@@H]1[C@@H](O[C@@H]2O[C@H](C)[C@@H](O[C@H]3C[C@@](C)(OC)[C@@H](OC(=O)CC(C)C)[C@H](C)O3)[C@H](N(C)C)[C@H]2O)[C@@H](CC=O)C[C@@H](C)C(=O)/C=C/C=C/C[C@@H](C)OC(=O)C[C@H]1OC(C)=O` [3"-O-methylcarbomycin B], for which the “antimicrobial activity compared with carbomycin B” value in experiment [1] is on record as “higher antimicrobial activity than carbomycin B”.
`CCC(=O)O[C@H]1[C@H](C)O[C@@H](O[C@H]2[C@H](N(C)C)[C@@H](O)[C@H](O[C@H]3[C@@H](CC=O)C[C@@H](C)[C@@H](O)/C=C/C=C/C[C@@H](C)OC(=O)C[C@@H](O)[C@@H]3OC)O[C@@H]2C)C[C@@]1(C)OC` [(2), 3"-O-methylleucomycin A7]: the “antimicrobial activity compared with clarithromycin” value is “comparable or slightly superior activities” in the experiment with Enterococcus feacalis, “comparable or slightly superior activities” in the experiment on Haemophilus influenzae, “definitely superior antimicrobial activity” in experiment [2] and “inferior to that of clarithromycin” with Branhamella catarrhalis. The “antimicrobial activity against Streptococcus pneumoniae” value in the experiment with Streptococcus pneumoniae was “considerably improved antimicrobial activity”. Also, the “antimicrobial activities (in words)” value in [3] is “strong antimicrobial activities”. Besides, the MIC is more than 100 µg/mL in the experiment with S. aureus MS15026; 6.25 µg/mL (≈ 8.1 µM) with H. influenzae Type b; 0.39 µg/mL (≈ 0.505 µM) with E. faecalis W-73; more than 100 µg/mL in the experiment on K. pneumoniae PCI602; 0.39 µg/mL (≈ 0.505 µM) in the experiment with B. catarrhalis W-0500; 0.05 µg/mL (≈ 0.0648 µM) in the experiment on S. pneumoniae Type 1. In addition, the MIC with S. aureus 209P JC-1 was 0.1 µg/mL (≈ 0.13 µM); in the experiment with S. aureus MS15027, 0.2 µg/mL (≈ 0.259 µM); in the experiment on S. aureus M126, more than 100 µg/mL; in the experiment on M. luteus ATCC9341 it was less than 0.025 µg/mL; with S. pneumoniae IP692, less than 0.025 µg/mL; with S. aureus MS15009/pMS98 it was 0.2 µg/mL (≈ 0.259 µM). Moreover, the MIC in the experiment with S. aureus M133 is 0.2 µg/mL (≈ 0.259 µM); with B. catarrhalis W-0506, 0.78 µg/mL (≈ 1.01 µM); in the experiment with S. aureus MS15009/pMS99, more than 100 µg/mL; in the experiment on S. epidermidis ATCC14990, 0.2 µg/mL (≈ 0.259 µM). Also, in the experiment on test strains (against most of test strains), the “antimicrobial activities in vitro compared with corresponding compounds having free 3"-hydroxyl (MDM, LM-A7)” value was “twice as high”. Also, the “antimicrobial activities in comparison with rokitamycin” value in the experiment on test strains (vs rokitamycin) is listed as “generally excellent except for a Gram-negative bacterium (Branhamella catarrhalis); also recorded: slightly superior to those of rokitamycin”.
